Laboratory results reported in US20060052288A1, “Pharmaceutical composition for inhibiting the metastasis or preventing the recurrence of malignant tumor” (priority 2001, published 2006).

Key:
[1] = tested on: M 5076 cells (mouse ovarian sarcoma cells); test: M 5076 liver metastatic models (survival); format: in vivo; settings: for Prolongation rate of survival (%) / Survival days: BDF1 male mice; for Prolongation rate of survival (%): vs control; for Survival days: observed 120 days
Procedure: Experiment 1 (M 5076 Liver Metastatic Models)
One million of M 5076 cells (mouse ovarian sarcoma cells) were implanted into BDF1 male mice (5-weeks old, 8 animals per group) at the tail vein. […] In the control group (untreated with test compound), only a physiological saline solution was administered. The survival time (days) was measured in both the test compound-treated groups and the control group, and the prolongation rate of survival was calculated according to the following equation.

[2] = tested on: H460 cells (human lung cancer); test: H460 metastatic models (Experiment 4); format: in vivo, mouse xenograft; parameters: key to Lymph node MI (Metastatic Incidence) / Liver MI (Metastatic Incidence) / Lung MI (Metastatic Incidence): number of animals with metastasis in the organ (out of 10); settings: NCr nu/nu mice, 10 animals, checked day 36
Procedure: Experiment 4 (H460 Metastatic Models)
A segment (2 mm^2) of H460 cells (human lung cancer) was implanted into the left lung of 100 NCr nu/nu female mice (5 to 6 weeks old, 10 animals per group). […] On the other hand, in the control group (untreated with test compound), only a physiological saline solution was administered. The presence or absence of the metastasis of each organ was checked on the 36th day after the implantation of tumor.

[3] = tested on: HT-29 cells (human colon cancer); test: HT-29 metastatic models, dosing from day 15 (Experiment 2); format: in vivo, mouse; settings: 10 animals, checked day 84; for Other organs MI (Metastatic Incidence): Diaphragm, Abdominal cavity, Thoracic cavity; for Liver MI (Metastatic Incidence) / Lung MI (Metastatic Incidence) / Lymph node MI (Metastatic Incidence) / Number of animals with metastasis: NCr nu/nu mice
Procedure: A test compound (Compound A; the compound obtained in Preparation 1 as mentioned below, Compound B; the compound obtained in Preparation 4 as mentioned below, and Irinotechan (CPT-11)) was dissolved in a physiological saline solution, and each amount as indicated in Table 2 as mentioned below was administered intravenously to the mice on the 15th, 19th, 23rd and 25th day after the implantation of tumor. On the other hand, in the control group (untreated with test compound), only a physiological saline solution was administered. The presence or absence of the metastasis of each organ was checked on the 84th day after the implantation of tumor.

[4] = tested on: HT-29 cells (human colon cancer); test: HT-29 metastatic models, dosing after lymph node metastasis observed (Experiment 3); format: in vivo; settings: 10 animals, checked day 84; for Other organs MI (Metastatic Incidence): Diaphragm, Abdominal cavity, Thoracic cavity; for Liver MI (Metastatic Incidence) / Lung MI (Metastatic Incidence) / Lymph node MI (Metastatic Incidence) / Number of animals with metastasis: NCr nu/nu mice
Procedure: Experiment 3 (HT-29 Metastatic Models)
A segment (2 mm^2) of HT-29 cells (human colon cancer) was implanted into the vermiform appendix of 100 NCr nu/nu female mice (5 to 6 weeks old, 10 animals per group). Since the lymph node metastasis was observed on the 49th day after the implantation of tumor, a test compound (Compound A; the compound obtained in Preparation 1 as mentioned below, and Irinotechan (CPT-11)) was dissolved in a physiological saline solution, and each amount as indicated in Table 3 as mentioned below was administered intravenously to the mice on the 51st, 55th, 59th, and 63rd day after the implantation of tumor. On the other hand, in the control group (untreated with test compound), only a physiological saline solution was administered. The presence or absence of the metastasis of each organ was checked on the 84th day after the implantation of tumor.

[5] = 40 mg/kg i.v. days 14, 18, 22, 26
[6] = 80 mg/kg i.v. days 14, 18, 22, 26
[7] = 20 mg/kg i.v. days 15, 19, 23, 25
[8] = 40 mg/kg i.v. days 15, 19, 23, 25
[9] = 40 mg/kg i.v. days 51, 55, 59, 63
[10] = 5 mg/kg i.v. days 14, 18, 22, 26
[11] = 10 mg/kg i.v. days 14, 18, 22, 26
[12] = 20 mg/kg i.v. days 14, 18, 22, 26
[13] = 5 mg/kg i.v. days 15, 19, 23, 25
[14] = 10 mg/kg i.v. days 15, 19, 23, 25
[15] = 20 mg/kg i.v. days 51, 55, 59, 63
[16] = 2.5 mg/kg i.v. days 14, 18, 22, 26
[17] = 2.5 mg/kg i.v. days 15, 19, 23, 25

Compound: CCc1c2c(nc3ccc(OC(=O)N4CCC(N5CCCCC5)CC4)cc13)-c1cc3c(c(=O)n1C2)COC(=O)[C@]3(O)CC [Irinotecan, reference compound]
- Prolongation rate of survival (%) ([1]; 80 mg/kg i.v. on days 4, 8, 12): 50.0%
- Survival days ([1]; 80 mg/kg i.v. on days 4, 8, 12 after implantation): 22.50 days
- Liver MI (Metastatic Incidence) [2, 5]: 0
- Lung MI (Metastatic Incidence) [2, 5]: 1
- Lymph node MI (Metastatic Incidence) [2, 5]: 0
- Number of animals with metastasis [2, 5]: 1
- Liver MI (Metastatic Incidence) [2, 6]: 0
- Lung MI (Metastatic Incidence) [2, 6]: 0
- Lymph node MI (Metastatic Incidence) [2, 6]: 2
- Number of animals with metastasis [2, 6]: 2
- Other organs MI (Metastatic Incidence) [3, 7]: 0
- Other organs MI (Metastatic Incidence) [3, 8]: 1
- Liver MI (Metastatic Incidence) [3, 7]: 2
- Lung MI (Metastatic Incidence) [3, 7]: 2
- Lymph node MI (Metastatic Incidence) [3, 7]: 9
- Number of animals with metastasis [3, 7]: 9
- Liver MI (Metastatic Incidence) [3, 8]: 0
- Lung MI (Metastatic Incidence) [3, 8]: 1
- Lymph node MI (Metastatic Incidence) [3, 8]: 7
- Number of animals with metastasis [3, 8]: 7
- Other organs MI (Metastatic Incidence) [4, 9]: 1
- Liver MI (Metastatic Incidence) [4, 9]: 1
- Lung MI (Metastatic Incidence) [4, 9]: 0
- Lymph node MI (Metastatic Incidence) [4, 9]: 8
- Number of animals with metastasis [4, 9]: 8

Compound: CM-dextran-7-ethyl-10-[3′-(glycyl-glycyl-glycylamino)propyloxy]-(20S)-camptothecin [Compound A]
- Prolongation rate of survival (%) ([1]; 12.5 mg/kg i.v. on days 4, 8, 12): 150.5%
- Survival days ([1]; 12.5 mg/kg i.v. on days 4, 8, 12 after implantation): 37.57 days
- Prolongation rate of survival (%) ([1]; 25 mg/kg i.v. on days 4, 8, 12): 187.5%
- Survival days ([1]; 25 mg/kg i.v. on days 4, 8, 12 after implantation): 43.13 days
- Prolongation rate of survival (%) ([1]; 50 mg/kg i.v. on days 4, 8, 12): 224.8%
- Survival days ([1]; 50 mg/kg i.v. on days 4, 8, 12 after implantation): 48.71 days
- activity of prolonging lifetime ([1]; M5076 liver metastatic models, summary in words): excellent activity of prolonging lifetime
- Liver MI (Metastatic Incidence) [2, 10]: 0
- Lung MI (Metastatic Incidence) [2, 10]: 1
- Lymph node MI (Metastatic Incidence) [2, 10]: 2
- Number of animals with metastasis [2, 10]: 2
- Liver MI (Metastatic Incidence) [2, 11]: 0
- Lung MI (Metastatic Incidence) [2, 11]: 0
- Lymph node MI (Metastatic Incidence) [2, 11]: 1
- Number of animals with metastasis [2, 11]: 1
- Liver MI (Metastatic Incidence) [2, 12]: 0
- Lung MI (Metastatic Incidence) [2, 12]: 2
- Lymph node MI (Metastatic Incidence) [2, 12]: 2
- Number of animals with metastasis [2, 12]: 3
- Liver MI (Metastatic Incidence) [2, 5]: 0
- Lung MI (Metastatic Incidence) [2, 5]: 0
- Lymph node MI (Metastatic Incidence) [2, 5]: 1
- Number of animals with metastasis [2, 5]: 1
- Other organs MI (Metastatic Incidence) [3, 13]: 2
- Other organs MI (Metastatic Incidence) [3, 14]: 0
- Other organs MI (Metastatic Incidence) [3, 7]: 0
- Other organs MI (Metastatic Incidence) [3, 8]: 0
- Liver MI (Metastatic Incidence) [3, 13]: 0
- Lung MI (Metastatic Incidence) [3, 13]: 1
- Lymph node MI (Metastatic Incidence) [3, 13]: 6
- Number of animals with metastasis [3, 13]: 6
- Liver MI (Metastatic Incidence) [3, 14]: 0
- Lung MI (Metastatic Incidence) [3, 14]: 2
- Lymph node MI (Metastatic Incidence) [3, 14]: 8
- Number of animals with metastasis [3, 14]: 8
- Liver MI (Metastatic Incidence) [3, 7]: 0
- Lung MI (Metastatic Incidence) [3, 7]: 1
- Lymph node MI (Metastatic Incidence) [3, 7]: 1
- Number of animals with metastasis [3, 7]: 2
- Liver MI (Metastatic Incidence) [3, 8]: 0
- Lung MI (Metastatic Incidence) [3, 8]: 0
- Lymph node MI (Metastatic Incidence) [3, 8]: 0
- Number of animals with metastasis [3, 8]: 0
- Other organs MI (Metastatic Incidence) [4, 15]: 1
- Other organs MI (Metastatic Incidence) [4, 9]: 2
- Liver MI (Metastatic Incidence) [4, 15]: 0
- Lung MI (Metastatic Incidence) [4, 15]: 0
- Lymph node MI (Metastatic Incidence) [4, 15]: 2
- Number of animals with metastasis [4, 15]: 3
- Liver MI (Metastatic Incidence) [4, 9]: 0
- Lung MI (Metastatic Incidence) [4, 9]: 0
- Lymph node MI (Metastatic Incidence) [4, 9]: 0
- Number of animals with metastasis [4, 9]: 2

Compound: carboxymethyldextran-polyalcohol-(1S,9S)-1-(glycyl-glycyl-L-phenylalanyl-glycylamino)-9-ethyl-5-fluoro-2,3-dihydro-9-hydroxy-4-methyl-1H,12H-benzo[de]pyrano[3′,4′:6,7] indolizino[1,2-b]quinoline-10,13(9H,15H)-dione [Compound B]
- Liver MI (Metastatic Incidence) [2, 16]: 0
- Lung MI (Metastatic Incidence) [2, 16]: 0
- Lymph node MI (Metastatic Incidence) [2, 16]: 1
- Number of animals with metastasis [2, 16]: 1
- Liver MI (Metastatic Incidence) [2, 10]: 0
- Lung MI (Metastatic Incidence) [2, 10]: 1
- Lymph node MI (Metastatic Incidence) [2, 10]: 2
- Number of animals with metastasis [2, 10]: 2
- Other organs MI (Metastatic Incidence) [3, 17]: 1
- Other organs MI (Metastatic Incidence) [3, 13]: 0
- Liver MI (Metastatic Incidence) [3, 17]: 1
- Lung MI (Metastatic Incidence) [3, 17]: 1
- Lymph node MI (Metastatic Incidence) [3, 17]: 6
- Number of animals with metastasis [3, 17]: 6
- Liver MI (Metastatic Incidence) [3, 13]: 0
- Lung MI (Metastatic Incidence) [3, 13]: 0
- Lymph node MI (Metastatic Incidence) [3, 13]: 0
- Number of animals with metastasis [3, 13]: 0
